For data set [1], the target named is T1, TSPO (Mus musculus, UniProt P50637). Description: Receptor film autoradiography of tissue sections with [3H]PK11195 and [125I]CLINDE. The settings on record: 10 μM unlabelled ligand; tissue sections from TSPO+/+ and TSPO+/- mice. Set-up: Snap-frozen tissues were sectioned at 20 μm in a cryostat; from tissue; host or cells: mouse organ sections (brain, retina/eye, heart, adrenal, kidney, testis, spleen), C57BL/6 background. The format is binding. The protocol:
Snap-frozen tissues were sectioned at 20 μm in a cryostat, thaw mounted on poly-L-lysine-coated slides and stored at −80° C. until day of experiment. On the day of the experiment, slides were thawed at room temperature and air dried with a cool stream of air. Total and non-specific binding were determined by incubation with 1 nM of 3H-PK11195 with or without the presence of 3 μM of PK11195 in 130 mM TRIS-HCl buffer (pH 7.4) at room temperature for 20 minutes. Following incubation, the slides were briefly dipped twice in 130 mM TRIS-HCl buffer, washed twice for 5 minutes in fresh 130 mM TRIS-HCl at room temperature. The slides were finally briefly rinsed 3 times in chilled distilled H2O, dried under a cool stream of air and allowed to air dried overnight. Sections were exposed to Kodak BioMax MR film along with tritium microscales with known activity concentrations in X-ray film cassettes. Films were developed after 33 days and digitized using a GS800 Calibrated Densitometer (Bio-Rad, Hercules, Calif., USA). Images were analysed with Quantity One imaging analysis program (Bio-Rad, Hercules, Calif. USA); to assess the level of 3H-PK11195 binding, regions of interest were drawn over the tissue and an average optical density/mm^2 was calculated. Data obtained from an individual film, subject to interfilm variations, were normalized against other films through the optical density oftritium microscales.
The organs including brain, retina, heart, kidney and testes used for film autoradiography were dissected from wild-type (TSPO^+/+), heterozygous (TSPO^+/−), and homozygous (TSPO^−/−) mice and snap-frozen in liquid nitrogen. Cryostat organ sections at 18 μm were placed onto superfrost slides (Menzel-Glaser, Braunschweig, Germany) and stored in the dark at −20° C. for no longer than 1 week before the experiment. […] Tritium standards (Amersham Biosciences, Uppsala, Sweden) co-exposed with the organ sections on each Hyperfilm-^3H (Kodak Film) at 4° C. for 60 days, were used to quantify the autoradiographically measured binding. The hyperfilm was developed using Kodak GBX developer and fixer (Sigma Aldrich, St. Louis, Mo., U.S.A.). The hyperfilm was air-dried overnight before being scanned using the ArtixScan 1800f flatbed scanner (Microtek, Hsinchu, Taiwan), with greyscale using a magnification of 400% and an optical resolution of 2400 pixels per inch. No pre-scanning manipulation or filter was applied.
(§1) Tissue sections from TSPO^+/+, TSPO^+/− and TSPO^−/− mice were incubated at room temperature for 20 min in 170 mM Tris-HCl pH 7.4 containing 1 nM [^3H]PK11195 (specific activity 84 Ci/mmol; Perkin Elmer, Waltham, Mass., USA), washed twice for 5 min in 170 mM Tris-HCl, rinsed with 3 dips in ice-cold MilliQ H2O, and dried. […] Displacement binding was carried out in the presence of PK11195 (10 μM), CLINDE (10 μM) and PBR-11 (10 μM).

For data set [2], the system named is TSPO. Nature of the data set: Radioligand membrane saturation binding with 3H-PK11195. Details: species or system mouse. Conditions: renal tissue samples; TSPO knock-out mice. The protocol: Tissue samples were homogenised with T25 digital Ultra-Turrax homogenizer (Ika, Wilmington, N.C., USA) at speed setting 5 or 20000 rpm in approximately 45 mL of ice-cold TRIS buffer (pH 7.4), collected by centrifugation at 48000 g and the supernatant was then discarded. The procedure was then immediately repeated, this acts as an extra wash step to remove any soluble interfering substances to radioligand binding (Byland et al. 1993). Following the second centrifugation and removal ofsupernatant the samples were resuspended in approximately 50 volumes of ice-cold TRIS buffer (pH 7.4). Samples were aliquoted stored in −80° C. until required.
For TSPO knock-out mice studies, radioligand binding was performed using 3H-PK11195 racemate across a range of concentrations (FIG. 4). PK11195 is a TSPO specific probe. Total and non-specific binding was determined through 8 concentrations of 3H-PK11195 ranging from 0.56 nM to 20 nM. Non-specific binding was determined by the addition of 5 μM PK11195 to all concentrations of 3H-PK11195. […]
Organs were homogenised, washed twice in ice-cold 50 mM Tris-HCl (pH 7.4) by centrifugation at 48000×g, resuspended in 50 volumes of ice-cold 50 mM Tris-HCl, and protein concentration was determined using a BCA protein assay kit (Thermo Fisher Scientific). […] Non-specific binding was determined with 5 μM PK11195. […]

Data set [3] relates to TSPO. Nature of the data set: Film autoradiography of brain sections after facial nerve axotomy. The format is binding, mouse. Conditions: homozygous (TSPO-/-) mice.
Text: Procedures for facial nerve axotomy were approved by the animal ethics committee at the University of Sydney. Animals were anaesthetised using Isoflurane anaesthesia. Animals were monitored for a combination of respiration, heart rate, oxygen saturation and temperature during procedures using a variety of monitoring equipment to ensure anaesthetic depth. The surgical process commenced when foot-pad or plantar reflex could no longer be elicited. The fur on the ipsilateral (right) side of the neck was shaved from the ear downwards, and the skin cleaned using 70% ethanol. A small incision (0.5-0.7 cm in length) overlying the musculature covering the stylomastoid foramen was made. The facial nerve was identified, isolated and then transected completely. The skin of incision was closed with heal-glue. […] The animals were euthanized with CO2 3 days after the axotomy and brain tissue, including facial nerve nuclei in the brain stem and cerebellum, was immediately dissected, snap-frozen in liquid nitrogen, and then stored in −80° C. freezer until the cryostat section.
A small incision (0.5-0.7 cm) in the skin 0.5 cm dorsal and lateral to the ear was made and the facial nerve transected under an operating microscope. The incision was closed with 3M™ Vetbond™ Tissue Adhesive (St. Paul, Minn., USA). […] Mice were monitored carefully and euthanized with CO2 three days after the operation. Brains were dissected, placed in OCT, transferred to liquid nitrogen, and stored at −80° C. until cryo-sectioning.
as §1

For data set [4], the system named is TSPO. Nature of the data set: In vivo PET/CT imaging with [18F]PBR111. Set-up: species or system mouse. The protocol: (§2) PET scans of test mice were performed using a small-animal Inveon PET/CT scanner (Siemens, Knoxville, Tenn., USA). Before scanning, the mice were anesthetized with 5% (v/v) isoflurane and positioned in the PET/CT scanner. The isoflurane level was maintained 1-2% thereafter. The body temperature was maintained with a feedback regulated heating pad and physiologic parameters (respiration and body temperature) were monitored (BioVet; m2m Imaging Corp.) for the entire scanning period. Lacri-lube (Allergan) was placed in the mouse's eyes to prevent drying while the mouse was anesthetized. The PET scans commenced simultaneously with the tail vein injection of [^18F]PBR111 (8-18 MBq/100 μL, 0.2 nmol). After 40 min of imaging, PBR111 (1 mg/kg in 2% acetic acid-saline) was injected via tail vein to determine the non-specific accumulation in organs and imaged for further 10 minutes. Upon completion of PET scanning, mice were CT scanned for 10 minutes for anatomical information. At the end of the study the mice were euthanized immediately after imaging by cervical dislocation while the animal was still fully anaesthetised.
(§3) Mice, anaesthetised (5% (v/v) isoflurane and maintained at 1-2%, were scanned using a small-animal Invcon PET/CT scanner (Siemens, Knoxville, Tenn., USA) according to methods described previously (Disselhorst, J. A. et al. Image-quality assessment for several positron emitters using the NEMA NU 4-2008 standards in the Siemens Inveon small-animal PET scanner. J Nucl Med 51, 610-617, doi:10.2967/jnumed.109.068858 (2010); Mattner, F. et al. Central nervous system expression and PET imaging of the translocator protein in relapsing-remitting experimental autoimmune encephalomyelitis. J Nucl Med 54, 291-298, doi: 10.2967/jnumed.112.108894 (2013)). Body temperature was maintained with a feedback regulated heating pad and respiration monitored (BioVet; m2m Imaging Corp, Cleveland, Ohio, USA). Scans started with the tail vein injection of [^18F]PBR111 (8-18 MBq/100 μL, […]). After 40 min of imaging, PBR111 (1 mg/kg in 2% acetic acid-saline) was injected to determine non-specific accumulation in organs and imaged for 10 minutes. Then, mice underwent a 10-min CT-scan for anatomical information. All PET data were corrected, normalised and reconstructed with an OSEM3D-MAP algorithm to produced PET volumes of activity concentration (kBq/ml).

Data set [5] has as its target T1, TSPO. Description: In vivo PET/CT imaging with [18F]PBR111. Details: from tissue; host or cells: organs of living mice (adrenal gland, kidney, heart, liver, lung, brain). The method, then: as §2, §3

Regarding `CCN(CC)C(=O)Cc1c(-c2ccc(I)cc2)nc2ccc(Cl)cn12` [CLINDE], at TSPO [1], the “competitive binding: displacement of specific binding of [125I]CLINDE and [3H]PK11195 by unlabelled ligand” value (shortened to “competitive binding: displacement”) was “displaced”.
Take `CC[C@@H](C)N(C)C(=O)c1cc2ccccc2c(-c2ccccc2Cl)n1` [PK11195, 1-(2-chlorophenyl)-N-methyl-N-(1-r-methylpropyl)-3-isoquinolinecarboxamide]: the “binding of the TSPO-selective probe PK11195” value in the data set with TSPO [2] is reported as “no binding”. Moreover, the “intensity of PK11195 binding in the cerebellum” value with TSPO [3] was “the same as the surrounding background”. Also, the “competitive binding: displacement” value at TSPO [1] is on record as “displaced”.
With `CCN(CC)C(=O)Cc1c(-c2ccc(OCCC[18F])cc2)nc2ccc(Cl)cn12` [[^18F]PBR111], the “radiotracer observed in PET images” value with TSPO [4] (TSPO knock-out (homozygous, TSPO-/-) mouse) is on record as “none”. The “ligand binding in PET/CT images” value with TSPO [4] (TSPO-/- mice) was “no ligand binding”. The “specific binding from radioligand kinetics and displacement with cold PBR111” value in the data set on TSPO [4] (TSPO-/- mice, any organs, cold PBR111 (1 mg/kg)) is given as “do not have specific binding”; on TSPO [5] (TSPO+/+ and TSPO+/- mice, cold PBR111 (1 mg/kg)), “indicates specific binding”. Also, the “time course of radiotracer uptake” value was “rapidly reaches the peak and then declines to the non-specific level” in the data set with TSPO [4] (adrenal gland, kidney, liver and heart, TSPO knock-out mice (TSPO-/-)); “slowly increases, but maintains a peak level” on TSPO [5] (adrenal gland, kidney and liver, wild-type mice (TSPO+/+), until PBR111 at 40 min). Moreover, the “distribution of ligand binding in PET/CT images” value on TSPO [5] (TSPO+/+ and TSPO+/- mice) is “in organs with known high TSPO expression, notably kidney and adrenal gland”. For the same compound, the “selectivity for TSPO” value at TSPO [5] (in vivo, validated against TSPO-/- null background) is recorded as “high selectivity”. At TSPO [5] (wild-type mouse (TSPO+/+)), the “intensity of radiotracer in PET images” value is given as “high intensity”.
In the case of PBR-111, the “competitive binding: displacement” value on TSPO [1] is given as “displaced”.

These data come from US20160050895A1, “TRANSGENIC NON-HUMAN ORGANISMS WITH NON-FUNCTIONAL TSPO GENES” (AUSTRALIAN NUCLEAR SCIENCE AND TECHNOLOGY ORGANIZATION, priority 2013, published 2016).
